Assay results from ChEMBL document CHEMBL5653615 (J Biol Chem, 2013).

How the values were obtained:
[1] = target: Mitogen-activated protein kinase kinase kinase 11 (Homo sapiens) (UniProt Q16584); assay: Inhibition of human MAP3K11 at 500 nM by HotSpot assay relative to control
[2] = target: Receptor tyrosine-protein kinase erbB-4 (Homo sapiens) (UniProt Q15303); assay: Inhibition of human ERBB4 at 500 nM by HotSpot assay relative to control
[3] = target: T1, Serine/threonine-protein kinase BRSK2 (Homo sapiens) (UniProt Q8IWQ3); assay: Inhibition of human BRSK2 at 500 nM by HotSpot assay relative to control
T1 sequence (whole entry): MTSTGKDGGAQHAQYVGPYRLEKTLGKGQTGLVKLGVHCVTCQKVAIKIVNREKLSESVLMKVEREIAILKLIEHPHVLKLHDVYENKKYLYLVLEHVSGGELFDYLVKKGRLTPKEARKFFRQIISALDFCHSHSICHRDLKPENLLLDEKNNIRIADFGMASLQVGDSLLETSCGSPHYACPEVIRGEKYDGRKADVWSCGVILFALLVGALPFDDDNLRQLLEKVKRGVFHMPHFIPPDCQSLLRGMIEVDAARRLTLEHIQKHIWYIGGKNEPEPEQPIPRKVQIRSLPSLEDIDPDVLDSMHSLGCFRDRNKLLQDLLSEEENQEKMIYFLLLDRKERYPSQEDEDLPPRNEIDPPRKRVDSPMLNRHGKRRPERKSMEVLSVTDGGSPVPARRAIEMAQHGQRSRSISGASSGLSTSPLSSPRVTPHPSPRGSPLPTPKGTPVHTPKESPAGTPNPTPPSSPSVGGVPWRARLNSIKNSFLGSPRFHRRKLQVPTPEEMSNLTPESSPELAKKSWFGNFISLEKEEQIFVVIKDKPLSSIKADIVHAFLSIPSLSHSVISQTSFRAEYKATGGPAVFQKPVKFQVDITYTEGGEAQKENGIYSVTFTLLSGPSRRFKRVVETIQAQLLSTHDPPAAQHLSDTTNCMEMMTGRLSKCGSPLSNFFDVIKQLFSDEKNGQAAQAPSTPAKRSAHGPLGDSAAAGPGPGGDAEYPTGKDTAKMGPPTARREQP

[4] = target: T2, Ephrin type-B receptor 3 (Homo sapiens) (UniProt P54753); assay: Inhibition of human EPHB3 at 500 nM by HotSpot assay relative to control
T2 sequence (whole entry): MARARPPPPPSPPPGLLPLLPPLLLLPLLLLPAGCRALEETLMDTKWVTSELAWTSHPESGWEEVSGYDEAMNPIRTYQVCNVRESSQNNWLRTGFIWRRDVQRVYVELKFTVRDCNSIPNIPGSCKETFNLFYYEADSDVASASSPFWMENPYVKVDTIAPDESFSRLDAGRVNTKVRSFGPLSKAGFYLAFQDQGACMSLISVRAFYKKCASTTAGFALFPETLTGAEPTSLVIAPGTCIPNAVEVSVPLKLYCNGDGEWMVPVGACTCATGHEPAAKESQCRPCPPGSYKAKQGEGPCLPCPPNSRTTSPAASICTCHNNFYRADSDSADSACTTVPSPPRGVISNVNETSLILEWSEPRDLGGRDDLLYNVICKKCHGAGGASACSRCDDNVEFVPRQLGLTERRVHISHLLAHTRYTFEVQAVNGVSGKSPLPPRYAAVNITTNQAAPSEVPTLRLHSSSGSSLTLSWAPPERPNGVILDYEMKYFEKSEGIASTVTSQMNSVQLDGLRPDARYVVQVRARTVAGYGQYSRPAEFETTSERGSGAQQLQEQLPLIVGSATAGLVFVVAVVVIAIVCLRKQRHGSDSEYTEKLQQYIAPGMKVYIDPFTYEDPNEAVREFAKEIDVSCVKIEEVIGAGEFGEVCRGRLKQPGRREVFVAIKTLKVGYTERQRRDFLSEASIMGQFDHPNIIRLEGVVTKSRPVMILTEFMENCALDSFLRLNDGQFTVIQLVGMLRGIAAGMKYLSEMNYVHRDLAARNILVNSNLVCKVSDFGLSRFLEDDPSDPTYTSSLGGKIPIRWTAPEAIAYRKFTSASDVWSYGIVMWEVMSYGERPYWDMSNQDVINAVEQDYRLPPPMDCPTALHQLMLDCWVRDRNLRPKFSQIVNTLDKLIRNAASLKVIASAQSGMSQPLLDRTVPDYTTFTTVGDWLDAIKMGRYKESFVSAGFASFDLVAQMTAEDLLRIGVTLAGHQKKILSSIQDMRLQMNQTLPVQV

[5] = target: Cyclin-dependent kinase 2/cyclin E1 (Homo sapiens) (UniProt P24864+P24941); assay: Inhibition of human CDK2/cyclin E at 500 nM by HotSpot assay relative to control; format: protein-complex assay
[6] = target: Protein kinase C alpha type (Homo sapiens) (UniProt P17252); assay: Inhibition of human PKCa at 500 nM by HotSpot assay relative to control
[7] = target: T3, Tyrosine-protein kinase ZAP-70 (Homo sapiens) (UniProt P43403); assay: Inhibition of human ZAP70 at 500 nM by HotSpot assay relative to control
T3 sequence (whole entry): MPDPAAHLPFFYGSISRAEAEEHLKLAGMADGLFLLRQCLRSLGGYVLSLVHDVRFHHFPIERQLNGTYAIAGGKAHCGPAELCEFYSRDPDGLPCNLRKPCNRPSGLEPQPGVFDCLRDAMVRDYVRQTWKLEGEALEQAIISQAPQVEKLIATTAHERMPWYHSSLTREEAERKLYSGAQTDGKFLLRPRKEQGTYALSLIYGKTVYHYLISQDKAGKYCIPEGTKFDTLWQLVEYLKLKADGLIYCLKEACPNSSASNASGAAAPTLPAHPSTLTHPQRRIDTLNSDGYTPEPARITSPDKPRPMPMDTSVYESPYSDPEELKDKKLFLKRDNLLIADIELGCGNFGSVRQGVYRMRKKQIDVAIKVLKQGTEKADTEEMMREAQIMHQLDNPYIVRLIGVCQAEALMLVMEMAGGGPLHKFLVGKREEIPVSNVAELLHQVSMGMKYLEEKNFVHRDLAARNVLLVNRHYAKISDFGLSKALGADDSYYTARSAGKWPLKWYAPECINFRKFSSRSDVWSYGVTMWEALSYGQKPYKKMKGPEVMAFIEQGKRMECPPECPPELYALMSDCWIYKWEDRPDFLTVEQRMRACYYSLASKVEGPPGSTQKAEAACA

[8] = target: RAC-beta serine/threonine-protein kinase (Homo sapiens) (UniProt P31751); assay: Inhibition of human AKT2 at 500 nM by HotSpot assay relative to control
[9] = target: Serine/threonine-protein kinase PLK2 (Homo sapiens) (UniProt Q9NYY3); assay: Inhibition of human PLK2 at 500 nM by HotSpot assay relative to control
Sequence of Serine/threonine-protein kinase PLK2 (Homo sapiens) (Q9NYY3 whole entry, looked up): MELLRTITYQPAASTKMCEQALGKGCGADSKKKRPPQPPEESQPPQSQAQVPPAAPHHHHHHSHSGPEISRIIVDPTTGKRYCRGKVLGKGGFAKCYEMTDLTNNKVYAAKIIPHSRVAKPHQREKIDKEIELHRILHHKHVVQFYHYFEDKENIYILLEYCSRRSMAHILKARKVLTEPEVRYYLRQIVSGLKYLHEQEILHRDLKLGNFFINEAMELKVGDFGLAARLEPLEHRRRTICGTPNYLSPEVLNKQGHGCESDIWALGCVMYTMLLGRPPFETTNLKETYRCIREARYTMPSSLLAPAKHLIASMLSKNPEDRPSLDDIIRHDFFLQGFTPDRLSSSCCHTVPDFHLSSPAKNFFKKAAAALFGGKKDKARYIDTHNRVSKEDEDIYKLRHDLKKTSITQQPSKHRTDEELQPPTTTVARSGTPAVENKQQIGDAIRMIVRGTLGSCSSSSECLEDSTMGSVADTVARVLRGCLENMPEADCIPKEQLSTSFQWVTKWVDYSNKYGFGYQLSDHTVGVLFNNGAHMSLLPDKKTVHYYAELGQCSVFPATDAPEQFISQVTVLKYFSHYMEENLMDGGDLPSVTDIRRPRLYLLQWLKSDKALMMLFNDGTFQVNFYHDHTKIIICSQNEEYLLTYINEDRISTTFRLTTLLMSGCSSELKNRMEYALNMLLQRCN

Sequence of Receptor tyrosine-protein kinase erbB-4 (Homo sapiens) (Q15303 whole entry): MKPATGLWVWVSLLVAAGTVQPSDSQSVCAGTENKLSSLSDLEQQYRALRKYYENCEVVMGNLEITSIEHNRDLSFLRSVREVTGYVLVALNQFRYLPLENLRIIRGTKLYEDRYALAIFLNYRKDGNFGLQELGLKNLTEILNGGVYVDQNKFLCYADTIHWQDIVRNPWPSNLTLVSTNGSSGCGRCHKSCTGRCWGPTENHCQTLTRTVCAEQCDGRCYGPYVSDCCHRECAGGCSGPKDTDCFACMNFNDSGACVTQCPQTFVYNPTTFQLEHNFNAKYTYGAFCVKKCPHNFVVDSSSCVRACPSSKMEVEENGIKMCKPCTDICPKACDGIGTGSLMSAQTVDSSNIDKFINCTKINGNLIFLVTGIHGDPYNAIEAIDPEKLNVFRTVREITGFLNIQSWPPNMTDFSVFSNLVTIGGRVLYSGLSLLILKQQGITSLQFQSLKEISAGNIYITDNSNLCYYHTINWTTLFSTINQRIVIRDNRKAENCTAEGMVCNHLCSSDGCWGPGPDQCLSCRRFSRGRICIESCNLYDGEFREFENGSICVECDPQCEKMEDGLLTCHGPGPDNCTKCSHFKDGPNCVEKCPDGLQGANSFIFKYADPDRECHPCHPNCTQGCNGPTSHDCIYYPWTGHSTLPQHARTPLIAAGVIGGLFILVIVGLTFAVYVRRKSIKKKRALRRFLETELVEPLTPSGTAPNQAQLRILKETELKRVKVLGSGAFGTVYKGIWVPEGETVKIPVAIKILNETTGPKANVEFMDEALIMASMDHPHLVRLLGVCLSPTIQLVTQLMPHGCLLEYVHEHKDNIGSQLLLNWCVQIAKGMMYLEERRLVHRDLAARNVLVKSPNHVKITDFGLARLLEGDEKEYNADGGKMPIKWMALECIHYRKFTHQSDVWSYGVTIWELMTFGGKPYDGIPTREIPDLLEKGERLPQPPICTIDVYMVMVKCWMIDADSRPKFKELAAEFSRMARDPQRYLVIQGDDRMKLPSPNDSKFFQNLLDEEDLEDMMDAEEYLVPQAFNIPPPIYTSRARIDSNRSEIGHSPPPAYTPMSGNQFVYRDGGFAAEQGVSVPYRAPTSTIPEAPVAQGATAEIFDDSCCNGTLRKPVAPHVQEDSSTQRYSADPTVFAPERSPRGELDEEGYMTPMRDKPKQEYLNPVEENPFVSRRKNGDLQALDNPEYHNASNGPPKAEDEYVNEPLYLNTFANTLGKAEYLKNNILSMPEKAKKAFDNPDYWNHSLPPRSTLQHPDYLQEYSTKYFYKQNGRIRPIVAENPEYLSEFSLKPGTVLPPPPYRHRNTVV
Sequence of RAC-beta serine/threonine-protein kinase (Homo sapiens) (P31751 whole entry): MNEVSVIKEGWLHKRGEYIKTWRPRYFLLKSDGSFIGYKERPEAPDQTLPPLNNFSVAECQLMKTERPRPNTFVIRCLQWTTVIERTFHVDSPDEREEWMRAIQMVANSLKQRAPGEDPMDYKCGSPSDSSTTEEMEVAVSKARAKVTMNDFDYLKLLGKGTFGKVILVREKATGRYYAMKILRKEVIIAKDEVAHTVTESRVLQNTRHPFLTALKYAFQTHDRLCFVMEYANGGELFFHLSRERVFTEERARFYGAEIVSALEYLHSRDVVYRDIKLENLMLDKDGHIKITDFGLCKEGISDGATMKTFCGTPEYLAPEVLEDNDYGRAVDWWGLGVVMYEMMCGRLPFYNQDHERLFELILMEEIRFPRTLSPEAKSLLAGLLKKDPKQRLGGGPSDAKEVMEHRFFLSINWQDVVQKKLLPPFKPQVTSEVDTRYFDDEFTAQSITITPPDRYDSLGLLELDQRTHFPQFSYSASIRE
Sequence of Mitogen-activated protein kinase kinase kinase 11 (Homo sapiens) (Q16584 whole entry, looked up): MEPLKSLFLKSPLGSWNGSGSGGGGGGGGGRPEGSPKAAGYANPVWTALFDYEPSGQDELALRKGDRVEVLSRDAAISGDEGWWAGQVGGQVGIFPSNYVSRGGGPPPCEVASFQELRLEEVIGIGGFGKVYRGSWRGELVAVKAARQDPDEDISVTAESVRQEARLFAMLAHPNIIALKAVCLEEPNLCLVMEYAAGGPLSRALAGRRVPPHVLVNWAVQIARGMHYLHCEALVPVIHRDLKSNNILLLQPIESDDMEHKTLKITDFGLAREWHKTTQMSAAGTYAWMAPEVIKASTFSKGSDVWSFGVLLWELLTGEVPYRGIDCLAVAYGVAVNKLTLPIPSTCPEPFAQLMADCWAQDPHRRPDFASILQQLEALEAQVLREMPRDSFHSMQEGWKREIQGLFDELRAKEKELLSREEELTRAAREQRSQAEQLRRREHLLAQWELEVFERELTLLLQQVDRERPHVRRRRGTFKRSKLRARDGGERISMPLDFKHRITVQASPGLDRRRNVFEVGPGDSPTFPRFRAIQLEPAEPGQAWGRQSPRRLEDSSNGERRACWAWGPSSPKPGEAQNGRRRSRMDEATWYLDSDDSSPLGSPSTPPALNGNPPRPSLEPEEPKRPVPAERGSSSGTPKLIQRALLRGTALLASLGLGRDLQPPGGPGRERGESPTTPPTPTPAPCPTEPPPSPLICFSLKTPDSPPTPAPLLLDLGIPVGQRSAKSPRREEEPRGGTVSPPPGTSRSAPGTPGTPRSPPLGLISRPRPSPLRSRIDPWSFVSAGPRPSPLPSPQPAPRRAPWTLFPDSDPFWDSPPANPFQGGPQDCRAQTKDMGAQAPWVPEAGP

Row | Compound | inhibition [1] | inhibition [2] | inhibition [3] | inhibition [4] | inhibition [5] | inhibition [6] | inhibition [7] | inhibition [8] | inhibition [9]
1 | Nc1n[nH]c2nnc(-c3c(-c4ccccc4)nn4ccccc34)cc12 | 5.68% | 8.64% | 3.92% | 3.21% | -0.67% | 12.8% | 9.86% | 2.47% | -6.73%
2 | Oc1n[nH]c2nnc(-c3c(-c4ccccc4)nn4ccccc34)cc12 | 2.87% | -0.52% | 1.23% | -1.08% | 0.01% | 14.1% | 5.7% | -5.44% | -3.28%
